Laboratory results taken from patent publication US20150087627A1, “COMBINATION OF KINASE INHIBITORS AND USES THEREOF” (Intellikine LLC, priority 2011, published 2015).
pIC50: −log10 of the molar value. Read-outs that look alike come from different tables or passages of the source.

Legend:
Type in all cases: biochemical
[1] = target: T1, PI3K β (p110β/p85α) (Homo sapiens, UniProt P42338); experiment: PI 3-Kinase (human) HTRF assay, PI3K β; conditions: for pIC50: read-out: PI3K β IC50
T1 construct: purchased Upstate / Millipore Corporation
T1 sequence (P42338 whole entry): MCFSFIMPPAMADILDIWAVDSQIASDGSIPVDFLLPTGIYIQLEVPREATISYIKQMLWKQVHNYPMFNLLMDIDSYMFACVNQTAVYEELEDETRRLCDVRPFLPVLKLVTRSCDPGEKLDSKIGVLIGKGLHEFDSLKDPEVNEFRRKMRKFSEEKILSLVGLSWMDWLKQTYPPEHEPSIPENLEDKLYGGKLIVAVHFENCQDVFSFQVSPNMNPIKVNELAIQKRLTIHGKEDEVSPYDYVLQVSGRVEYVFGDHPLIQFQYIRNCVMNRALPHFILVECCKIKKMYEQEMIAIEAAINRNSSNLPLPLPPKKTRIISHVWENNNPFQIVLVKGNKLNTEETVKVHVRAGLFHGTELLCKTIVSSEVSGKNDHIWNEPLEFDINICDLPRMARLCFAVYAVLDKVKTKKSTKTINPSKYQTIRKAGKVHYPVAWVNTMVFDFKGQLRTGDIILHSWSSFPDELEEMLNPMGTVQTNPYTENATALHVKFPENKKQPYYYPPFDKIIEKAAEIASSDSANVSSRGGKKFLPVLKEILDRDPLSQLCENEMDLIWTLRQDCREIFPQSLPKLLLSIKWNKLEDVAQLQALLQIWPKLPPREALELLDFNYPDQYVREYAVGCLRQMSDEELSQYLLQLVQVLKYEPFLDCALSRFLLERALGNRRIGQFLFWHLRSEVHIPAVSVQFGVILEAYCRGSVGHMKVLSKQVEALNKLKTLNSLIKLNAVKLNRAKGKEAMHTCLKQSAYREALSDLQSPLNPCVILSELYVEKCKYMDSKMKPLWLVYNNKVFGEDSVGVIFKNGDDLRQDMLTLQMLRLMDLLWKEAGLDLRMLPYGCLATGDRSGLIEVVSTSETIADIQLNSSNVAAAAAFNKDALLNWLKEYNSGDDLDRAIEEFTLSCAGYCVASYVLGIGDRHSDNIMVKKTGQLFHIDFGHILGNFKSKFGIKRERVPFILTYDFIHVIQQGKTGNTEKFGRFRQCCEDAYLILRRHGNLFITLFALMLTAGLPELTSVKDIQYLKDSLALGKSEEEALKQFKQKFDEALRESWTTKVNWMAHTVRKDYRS
T1 sequence (P27986 whole entry partner): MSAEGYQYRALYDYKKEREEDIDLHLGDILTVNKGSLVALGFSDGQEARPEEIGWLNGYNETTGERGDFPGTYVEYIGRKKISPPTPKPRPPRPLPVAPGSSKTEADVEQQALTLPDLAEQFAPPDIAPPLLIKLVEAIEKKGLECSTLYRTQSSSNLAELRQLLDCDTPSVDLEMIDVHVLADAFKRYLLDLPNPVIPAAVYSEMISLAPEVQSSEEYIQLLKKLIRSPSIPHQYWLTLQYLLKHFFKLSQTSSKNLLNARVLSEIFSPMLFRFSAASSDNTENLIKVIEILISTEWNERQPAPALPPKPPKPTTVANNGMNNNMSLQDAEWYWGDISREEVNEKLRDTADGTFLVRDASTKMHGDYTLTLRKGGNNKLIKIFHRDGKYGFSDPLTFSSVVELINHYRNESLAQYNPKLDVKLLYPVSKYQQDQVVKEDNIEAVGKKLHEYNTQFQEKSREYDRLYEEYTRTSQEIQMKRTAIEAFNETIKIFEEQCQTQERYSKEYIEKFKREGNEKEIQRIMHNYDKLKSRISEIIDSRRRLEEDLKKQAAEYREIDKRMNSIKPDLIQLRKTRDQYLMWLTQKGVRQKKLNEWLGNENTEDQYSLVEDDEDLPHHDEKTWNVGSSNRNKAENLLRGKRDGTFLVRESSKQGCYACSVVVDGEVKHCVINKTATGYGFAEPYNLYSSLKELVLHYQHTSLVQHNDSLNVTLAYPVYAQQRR

[2] = target: T2, PI3K δ (Homo sapiens, UniProt O00329); experiment: PI 3-Kinase (human) HTRF assay, PI3K δ
T2 construct: purchased Upstate / Millipore Corporation
T2 sequence (O00329 whole entry): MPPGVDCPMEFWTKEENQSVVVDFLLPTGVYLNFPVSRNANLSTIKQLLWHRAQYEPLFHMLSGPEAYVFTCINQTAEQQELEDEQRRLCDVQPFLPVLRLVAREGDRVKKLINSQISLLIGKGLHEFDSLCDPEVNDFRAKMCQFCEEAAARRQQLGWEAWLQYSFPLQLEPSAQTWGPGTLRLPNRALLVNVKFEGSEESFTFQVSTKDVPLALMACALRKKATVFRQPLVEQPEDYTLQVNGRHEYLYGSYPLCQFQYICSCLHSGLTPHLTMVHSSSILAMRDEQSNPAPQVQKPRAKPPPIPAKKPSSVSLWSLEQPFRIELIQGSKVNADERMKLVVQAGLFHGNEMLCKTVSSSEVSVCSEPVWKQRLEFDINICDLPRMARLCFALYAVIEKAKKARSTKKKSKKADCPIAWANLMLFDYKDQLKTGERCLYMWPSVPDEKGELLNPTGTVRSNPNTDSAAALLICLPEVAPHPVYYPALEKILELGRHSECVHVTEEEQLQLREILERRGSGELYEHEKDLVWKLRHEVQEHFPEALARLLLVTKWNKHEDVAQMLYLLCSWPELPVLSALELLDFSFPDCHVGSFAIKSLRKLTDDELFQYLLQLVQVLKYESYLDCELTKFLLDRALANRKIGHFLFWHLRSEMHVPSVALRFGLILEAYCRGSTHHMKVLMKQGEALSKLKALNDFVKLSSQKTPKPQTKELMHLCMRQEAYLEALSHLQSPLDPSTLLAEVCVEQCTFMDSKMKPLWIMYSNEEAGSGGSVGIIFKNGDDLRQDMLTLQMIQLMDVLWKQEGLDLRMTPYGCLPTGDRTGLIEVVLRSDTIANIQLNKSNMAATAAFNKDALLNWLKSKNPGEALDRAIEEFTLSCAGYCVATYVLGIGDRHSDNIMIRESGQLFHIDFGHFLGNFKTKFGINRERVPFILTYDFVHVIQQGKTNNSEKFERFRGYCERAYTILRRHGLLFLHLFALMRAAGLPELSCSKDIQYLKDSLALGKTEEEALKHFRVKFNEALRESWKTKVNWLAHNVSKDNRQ
T2 sequence (P27986 whole entry partner): as the sequence (P27986 whole entry partner) above

[3] = target: T3, PI3K α (p110α/p85α) (Homo sapiens, UniProt P42336); experiment: PI 3-Kinase (human) HTRF assay, PI3K α; conditions: read-out: PI3K α IC50
T3 construct: purchased Upstate / Millipore Corporation
T3 sequence (P42336 whole entry): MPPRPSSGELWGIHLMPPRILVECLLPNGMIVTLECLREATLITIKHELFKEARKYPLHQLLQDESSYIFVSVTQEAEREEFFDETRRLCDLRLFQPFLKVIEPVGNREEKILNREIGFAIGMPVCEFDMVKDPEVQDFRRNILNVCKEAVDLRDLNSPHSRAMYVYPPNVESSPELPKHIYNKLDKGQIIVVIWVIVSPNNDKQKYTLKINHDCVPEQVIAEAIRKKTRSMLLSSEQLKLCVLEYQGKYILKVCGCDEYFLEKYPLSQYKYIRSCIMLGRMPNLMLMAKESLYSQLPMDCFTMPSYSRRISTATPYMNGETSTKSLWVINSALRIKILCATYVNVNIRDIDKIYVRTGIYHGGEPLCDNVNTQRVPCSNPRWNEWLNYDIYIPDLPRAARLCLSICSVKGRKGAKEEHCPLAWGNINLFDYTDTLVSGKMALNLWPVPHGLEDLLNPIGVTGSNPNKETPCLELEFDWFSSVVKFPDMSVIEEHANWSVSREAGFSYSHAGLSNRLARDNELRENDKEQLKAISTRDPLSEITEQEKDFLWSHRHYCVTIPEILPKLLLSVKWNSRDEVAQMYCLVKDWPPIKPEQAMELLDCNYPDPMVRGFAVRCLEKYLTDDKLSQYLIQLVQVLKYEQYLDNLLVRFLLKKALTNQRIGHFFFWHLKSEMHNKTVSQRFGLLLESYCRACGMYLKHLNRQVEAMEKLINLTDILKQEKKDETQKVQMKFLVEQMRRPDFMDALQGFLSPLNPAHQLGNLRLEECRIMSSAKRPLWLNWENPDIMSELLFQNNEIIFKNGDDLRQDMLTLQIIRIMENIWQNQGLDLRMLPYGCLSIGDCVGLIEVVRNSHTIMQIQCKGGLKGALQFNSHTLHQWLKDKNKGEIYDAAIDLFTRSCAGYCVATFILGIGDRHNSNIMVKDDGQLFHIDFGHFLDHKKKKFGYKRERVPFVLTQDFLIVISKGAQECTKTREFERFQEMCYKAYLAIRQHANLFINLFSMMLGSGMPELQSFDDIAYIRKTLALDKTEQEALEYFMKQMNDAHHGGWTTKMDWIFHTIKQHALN
T3 sequence (P27986 whole entry partner): as the sequence (P27986 whole entry partner) above

[4] = target: T4, PI3K γ (p110γ) (Homo sapiens, UniProt P48736); experiment: PI 3-Kinase (human) HTRF assay, PI3K γ; conditions: for pIC50: read-out: PI3K γ IC50
T4 construct: purchased Upstate / Millipore Corporation
T4 sequence (P48736 whole entry): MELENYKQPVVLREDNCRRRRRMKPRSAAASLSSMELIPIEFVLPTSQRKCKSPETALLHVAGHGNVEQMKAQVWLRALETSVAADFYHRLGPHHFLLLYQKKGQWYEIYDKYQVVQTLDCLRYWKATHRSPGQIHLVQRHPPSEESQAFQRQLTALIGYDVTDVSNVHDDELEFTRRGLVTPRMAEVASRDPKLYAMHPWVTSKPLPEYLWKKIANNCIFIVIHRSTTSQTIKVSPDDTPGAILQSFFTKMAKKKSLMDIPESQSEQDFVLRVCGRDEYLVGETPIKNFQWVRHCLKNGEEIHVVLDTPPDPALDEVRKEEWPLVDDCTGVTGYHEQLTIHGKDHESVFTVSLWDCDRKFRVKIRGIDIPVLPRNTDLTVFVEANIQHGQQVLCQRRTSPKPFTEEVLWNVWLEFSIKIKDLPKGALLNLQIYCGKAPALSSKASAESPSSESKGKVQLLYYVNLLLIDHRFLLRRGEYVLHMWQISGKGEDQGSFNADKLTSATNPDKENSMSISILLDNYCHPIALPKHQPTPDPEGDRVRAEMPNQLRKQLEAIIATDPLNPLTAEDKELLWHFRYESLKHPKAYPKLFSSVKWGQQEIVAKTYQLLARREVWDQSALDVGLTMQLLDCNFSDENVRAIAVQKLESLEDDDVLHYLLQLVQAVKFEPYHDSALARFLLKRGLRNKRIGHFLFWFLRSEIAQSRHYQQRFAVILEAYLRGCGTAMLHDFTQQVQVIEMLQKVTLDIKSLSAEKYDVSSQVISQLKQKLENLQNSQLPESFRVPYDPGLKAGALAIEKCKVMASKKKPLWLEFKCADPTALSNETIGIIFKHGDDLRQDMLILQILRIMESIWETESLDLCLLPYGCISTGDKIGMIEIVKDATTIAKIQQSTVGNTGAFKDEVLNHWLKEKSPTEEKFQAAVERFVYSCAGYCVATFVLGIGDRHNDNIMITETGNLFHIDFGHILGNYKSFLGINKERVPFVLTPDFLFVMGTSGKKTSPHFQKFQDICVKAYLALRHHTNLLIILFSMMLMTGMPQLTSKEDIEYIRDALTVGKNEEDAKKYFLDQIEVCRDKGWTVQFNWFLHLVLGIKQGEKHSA

Row | SMILES | pIC50 [1] | pIC50 ([2]; read-out: PI3K δ IC50) | pIC50 [3] | pIC50 [4] | IC50 ([4]; PI3K γ IC50 (nM)) | IC50 ([1]; PI3K β IC50 (nM)) | pIC50 [2]
1 | Nc1nc2cc(-c3ccc4ncc(C(=O)N5CC(n6cccn6)C5)n4c3)ccc2o1 [Compound 479] | < 5.00 | > 5.00 | > 7.00 | > 6.00 | – | – | –
2 | Nc1nc2cc(-c3ccc4ncc(C(=O)N5C6CCC5COC6)n4c3)ccc2o1 [Compound 480] | < 5.00 | > 5.00 | > 7.00 | – | < 1000 nM | – | –
3 | C[C@H]1COCCN1C(=O)c1cnc2ccc(-c3ccc4oc(N)nc4c3)cn12 [Compound 483] | > 5.00 | < 5.00 | > 7.00 | > 5.00 | – | – | –
4 | Nc1nc2cccc(-c3ccc4ncc(C(=O)N5CCOCC5)n4c3)c2o1 [Compound 484] | < 5.00 | < 5.00 | > 6.00 | < 5.00 | – | – | –
5 | Nc1nc2cccc(-c3ccc4ncc(C(=O)N5CCOCC5)n4c3)c2s1 [Compound 485] | < 5.00 | < 5.00 | > 5.00 | < 5.00 | – | – | –
6 | CNc1noc2cc(-c3ccc4ncc(C(=O)N5CCOCC5)n4c3)ccc12 [Compound 486] | < 5.00 | < 5.00 | > 5.00 | > 5.00 | – | – | –
7 | Nc1noc2cc(-c3ccc4ncc(C(=O)N5CCOCC5)n4c3)ccc12 [Compound 488] | < 5.00 | < 5.00 | < 5.00 | < 5.00 | – | – | –
8 | Nc1nsc2cc(-c3ccc4ncc(C(=O)N5CCOCC5)n4c3)ccc12 [Compound 489] | < 5.00 | < 5.00 | > 5.00 | < 5.00 | – | – | –
9 | Nc1noc2c(-c3ccc4ncc(C(=O)N5CCOCC5)n4c3)cccc12 [Compound 491] | < 5.00 | < 5.00 | < 5.00 | < 5.00 | – | – | –
10 | Nc1nc2cc(-c3ccc4ncc(C(=O)N5CCn6cncc6C5)n4c3)ccc2o1 [Compound 493] | > 6.00 | < 5.00 | > 7.00 | > 5.00 | – | – | –
11 | Nc1nc2cc(-c3ccc4ncc(C(=O)N5CC6(C5)OCCO6)n4c3)ccc2o1 [Compound 494] | – | – | > 7.00 | > 6.00 | – | < 10000 nM | < 5.00
12 | C[C@@H]1COCCN1C(=O)c1cnc2ccc(-c3ccc4oc(N)nc4c3)cn12 [Compound 495] | > 5.00 | < 5.00 | > 7.00 | > 6.00 | – | – | –
13 | CNc1nsc2cc(-c3ccc4ncc(C(=O)N5CCOCC5)n4c3)ccc12 [Compound 497] | < 5.00 | < 5.00 | < 5.00 | < 5.00 | – | – | –
14 | Nc1nc2cc(-c3ccc4ncc(C(=O)N5CCC(N6CC(F)(F)C6)C5)n4c3)ccc2o1 (stereo not shown) [Compound 498] | < 5.00 | < 5.00 | > 6.00 | > 5.00 | – | – | –
15 | Nc1nc2cc(-c3ccc4ncc(C(=O)N5CCC6(C5)OCCO6)n4c3)ccc2o1 [Compound 499] | < 5.00 | < 5.00 | > 6.00 | > 5.00 | – | – | –
16 | Nc1nc2cc(-c3ccc4ncc(C(=O)N5CCC(N6CCC(F)(F)C6)C5)n4c3)ccc2o1 (stereo not shown) [Compound 500] | < 5.00 | > 5.00 | > 6.00 | > 5.00 | – | – | –
17 | Nc1nc2cc(-c3ccc4ncc(C(=O)N5CCC(F)(F)CC5)n4c3)ccc2o1 [Compound 501] | < 5.00 | < 5.00 | > 6.00 | > 5.00 | – | – | –
18 | Nc1nc2cc(-c3ccc4ncc(C(=O)N5CC(N6CCC(F)(F)C6)C5)n4c3)ccc2o1 [Compound 502] | < 5.00 | > 5.00 | > 7.00 | > 6.00 | – | – | –
19 | Nc1nc2cc(-c3ccc4ncc(C(=O)N5CCC(F)CC5)n4c3)ccc2o1 [Compound 503] | < 5.00 | < 5.00 | > 6.00 | > 7.00 | – | – | –
20 | Nc1nc2cc(-c3ccc4ncc(C(=O)N5CC6CCC(C5)O6)n4c3)ccc2o1 [Compound 504] | > 5.00 | < 5.00 | > 6.00 | > 7.00 | – | – | –
21 | O=C(c1cnc2ccc(-c3ccc4c(Nc5ccccc5)nsc4c3)cn12)N1CCOCC1 [Compound 505] | < 5.00 | < 5.00 | < 5.00 | < 5.00 | – | – | –
22 | O=C(c1cnc2ccc(-c3cncc4[nH]ncc34)cn12)N1CCOCC1 [Compound 506] | < 5.00 | < 5.00 | > 7.00 | < 5.00 | – | – | –
23 | Cc1cc2ncc(C(=O)N3CCOCC3)n2cc1-c1ccc2oc(N)nc2c1 [Compound 507] | < 5.00 | < 5.00 | < 5.00 | < 5.00 | – | – | –
24 | C[C@@H]1CN(C2CN(C(=O)c3cnc4ccc(-c5ccc6oc(N)nc6c5)cn34)C2)CCN1C [Compound 508] | > 5.00 | > 6.00 | > 7.00 | > 5.00 | – | – | –
25 | O=C(c1cnc2ccc(-c3ccc4c(Nc5ccccc5)noc4c3)cn12)N1CCOCC1 [Compound 509] | < 5.00 | < 5.00 | < 5.00 | < 5.00 | – | – | –

Row | SMILES | pIC50 [1] | pIC50 ([2]; read-out: PI3K δ IC50) | pIC50 [3] | pIC50 [4] | IC50 ([4]; PI3K γ IC50 (nM)) | IC50 ([1]; PI3K β IC50 (nM)) | pIC50 [2]
26 | C[C@H]1CN(C2CN(C(=O)c3cnc4ccc(-c5ccc6oc(N)nc6c5)cn34)C2)CCN1 [Compound 510] | > 5.00 | > 6.00 | > 7.00 | > 5.00 | – | – | –
27 | CC1(C)CN(C(=O)c2cnc3ccc(-c4ccc5oc(N)nc5c4)cn23)CCO1 [Compound 513] | < 5.00 | < 5.00 | > 6.00 | > 5.00 | – | – | –
28 | CC1(C)CN(C2CN(C(=O)c3cnc4ccc(-c5ccc6oc(N)nc6c5)cn34)C2)CCN1 [Compound 515] | > 5.00 | > 7.00 | > 7.00 | > 6.00 | – | – | –
29 | O=C(c1cnc2ccc(-c3cnc(Cl)c4[nH]ncc34)cn12)N1CCOCC1 [Compound 516] | < 5.00 | < 5.00 | > 6.00 | < 5.00 | – | – | –
30 | COc1ncc(-c2ccc3ncc(C(=O)N4CCOCC4)n3c2)c2cn[nH]c12 [Compound 517] | < 5.00 | > 5.00 | > 6.00 | > 5.00 | – | – | –
31 | CN1CCN(n2cnc3ccc(-c4ccc5oc(N)nc5c4)cc3c2=O)CC1 [Compound 518] | < 5.00 | < 5.00 | > 6.00 | < 5.00 | – | – | –
32 | CC(C)N1CCC(n2cnc3ccc(-c4cncc(NS(=O)(=O)c5ccc(F)cc5F)c4)cc3c2=O)CC1 [Compound 519] | > 5.00 | > 5.00 | > 6.00 | > 6.00 | – | – | –
33 | CC(C)N1CCC(n2cnc3ccc(-c4cncc(NS(C)(=O)=O)c4)cc3c2=O)CC1 [Compound 520] | < 5.00 | < 5.00 | < 5.00 | < 5.00 | – | – | –
34 | COc1ncc(-c2ccc3ncn(C4CCN(C(C)C)CC4)c(=O)c3c2)cc1NS(=O)(=O)c1ccccc1 [Compound 522] | > 7.00 | > 7.00 | > 7.00 | > 7.00 | – | – | –
35 | CC(C)N1CCC(n2cnc3ccc(-c4cnc(Cl)c(NS(C)(=O)=O)c4)cc3c2=O)CC1 [Compound 523] | > 6.00 | > 7.00 | > 7.00 | > 7.00 | – | – | –
36 | COc1ncc(-c2ccc3ncn(C4CCN(C)CC4)c(=O)c3c2)cc1NS(=O)(=O)c1ccccc1 [Compound 524] | > 7.00 | > 7.00 | > 7.00 | > 6.00 | – | – | –
37 | COc1ncc(-c2ccc3ncn(C4CCN(C)CC4)c(=O)c3c2)cc1NS(C)(=O)=O [Compound 525] | > 6.00 | > 7.00 | > 7.00 | > 5.00 | – | – | –
38 | CN1CCC(n2cnc3ccc(-c4cnc(Cl)c(NS(C)(=O)=O)c4)cc3c2=O)CC1 [Compound 526] | > 5.00 | > 6.00 | > 7.00 | < 5.00 | – | – | –
39 | CN1CCC(n2cnc3ccc(-c4cnc(Cl)c(NS(=O)(=O)c5ccccc5)c4)cc3c2=O)CC1 [Compound 527] | > 7.00 | > 7.00 | > 7.00 | > 6.00 | – | – | –
40 | CN1CC(n2cnc3ccc(-c4ccc5oc(N)nc5c4)cc3c2=O)C1 [Compound 528] | > 5.00 | < 5.00 | > 6.00 | < 5.00 | – | – | –
41 | CN1CC2CN(C(=O)c3cnc4ccc(-c5ccc6oc(N)nc6c5)cn34)CC2C1 (stereo not shown) [Compound 533] | > 6.00 | > 6.00 | > 7.00 | > 6.00 | – | – | –
42 | O=C(c1cnc2ccc(-c3cnc4cn[nH]c4c3)cn12)N1CCOCC1 [Compound 535] | < 5.00 | < 5.00 | > 5.00 | < 5.00 | – | – | –
43 | Nc1nc2cc(-c3cnc4ccc(C(=O)N5C6CCC5COC6)cn34)ccc2o1 [Compound 540] | < 5.00 | < 5.00 | < 5.00 | < 5.00 | – | – | –
44 | CN1CCN(c2nnc3ccc(-c4ccc5nc(N)oc5c4)cn23)CC1 [Compound 542] | < 5.00 | < 5.00 | < 5.00 | < 5.00 | – | – | –
45 | Nc1nc2ccc(-c3ccc4ncc(C(=O)N5CCOCC5)n4c3)cc2[nH]1 [Compound 544] | < 5.00 | < 5.00 | > 6.00 | < 5.00 | – | – | –
46 | CN1CCN(CCc2nnc3ccc(-c4ccc5nc(N)oc5c4)cn23)CC1 [Compound 545] | < 5.00 | < 5.00 | < 5.00 | < 5.00 | – | – | –
47 | Cc1cc(-c2ccc3nc(N)oc3c2)cn2c(N3CCN(C)CC3)nnc12 [Compound 546] | < 5.00 | < 5.00 | < 5.00 | < 5.00 | – | – | –
48 | CN1CCN(Cc2nnc3ccc(-c4ccc5nc(N)oc5c4)cn23)CC1 [Compound 547] | < 5.00 | < 5.00 | < 5.00 | < 5.00 | – | – | –
49 | Cc1cc(-c2ccc3nc(N)oc3c2)cn2c(CCN3CCN(C)CC3)nnc12 [Compound 548] | < 5.00 | < 5.00 | < 5.00 | < 5.00 | – | – | –
